Assay [1] relates to MCF7ADR (adriamycin resistant breast adenocarcinoma). Put plainly: In vitro growth inhibition screen (sulphorhodamine B), MCF7ADR. The class given is cell-based, human. Conditions: MCF7ADR cells, incubated for 48 hours, sulphorhodamine B dye; read-out: GI50 (concentration which inhibits the cell growth by 50%), MCF7ADR Adriamycin Resistant Breast adenocarcinoma. As to the method: (§1) Each agent was tested over a broad concentration range (ten-fold dilutions starting from ≧100 μM to 10 nM) against 6 human cancer cell lines which was comprised of different tumor types. These are DU145 (prostate carcinoma), HT29 (colorectal adenocarcinoma), LOX (melanoma), MCF7 (breast adenocarcinoma), MCF7ADR (adriamycin resistant breast adenocarcinoma), and U251 (human glioblastoma). A standard compound doxorubicin was tested in each assay as a positive control. The cells were maintained in growing condition in RPMI 1640 medium containing 10% fetal calf serum and incubated at 37° C. under 5% CO2 atmosphere. All cell lines were inoculated onto a series of standard 96-well microtitre plate on day zero, followed by twenty four-hour incubation in the absence of test compound. The inoculation densities in the screen were as per Monk et al., (1991) J. Natl. Cancer Inst., 83, 757-766. All NCEs were dissolved in DMSO and diluted further in culture medium. An aliquot of each dilution was added to the growing cells in 96 well plates and incubated for 48 hours. After incubation, the assay was terminated by adding 50 μL of trichloroacetic acid (TCA) and incubating at 4° C. for 30 min. The precipitated cells were washed and stained with sulphorhodamine B dye for 30 min and the excess dye was washed off with acetic acid. Adsorbed dye was solubilised in Tris base (alkaline pH) and quantitated by measuring the OD at […] in ELISA READER. GI50 (concentration which inhibits the cell growth by 50%) was calculated according to Boyd and Paull, (1995) Drug Dev. Res., 34, 91-109.

The test system of assay [2] is MCF7 (breast adenocarcinoma). Put plainly: In vitro growth inhibition screen (sulphorhodamine B), MCF7. Format: cell-based, human. Conditions: MCF7 cells, incubated for 48 hours, sulphorhodamine B dye; read-out: GI50 (concentration which inhibits the cell growth by 50%), MCF7 Breast adenocarcinoma. On the procedure:
as §1

Assay [3] relates to U251 (human glioblastoma). The assay is described as follows: In vitro growth inhibition screen (sulphorhodamine B), U251. Format: cell-based. Conditions: U251 cells, incubated for 48 hours, sulphorhodamine B dye; read-out: GI50 (concentration which inhibits the cell growth by 50%), U251 Human glioblastoma astrocytoma. On the procedure:
as §1

The subject of assay [4] is HT29 (colorectal adenocarcinoma). The assay is described as follows: In vitro growth inhibition screen (sulphorhodamine B), HT29. Format: cell-based, human. The conditions noted are these: HT29 cells, incubated for 48 hours, sulphorhodamine B dye; read-out: GI50 (concentration which inhibits the cell growth by 50%), HT29 Colorectal adenocarcinoma. On the procedure:
as §1

A further assay deals with LOX (melanoma). Put plainly: In vitro growth inhibition screen (sulphorhodamine B), LOX. Format: cell-based, human. The conditions noted are these: LOX cells, incubated for 48 hours, sulphorhodamine B dye; read-out: GI50 (concentration which inhibits the cell growth by 50%), LOX Melanoma. As to the method: as §1
Assay [5] concerns DU145 (prostate carcinoma). Put plainly: In vitro growth inhibition screen (sulphorhodamine B), DU145. The class given is cell-based, human. The conditions noted are these: DU145 cells, incubated for 48 hours, sulphorhodamine B dye; read-out: GI50 (concentration which inhibits the cell growth by 50%), DU145 Prostate carcinoma. As to the method: as §1

In the case of `CCCN1C(=O)C(O)C(O)C(O)C1CNC(=O)NC(C)C` [Compound No. 30, 6-N-{[Isopropyl]aminocarbonylamino}-N-propyl-D-gluco-δ-lactam], the GI50 in assay [1] was 209 µM; in assay [2] it was 180 µM; in assay [3], 100 µM; in assay [4], 42.6 µM; in the assay on LOX (melanoma), 226 µM; in assay [5] it was 119 µM.
For the compound `CCCN1C(=O)[C@H](O)[C@@H](O)[C@H](O)[C@H]1CNC(=O)Nc1ccc(C(F)(F)F)cc1` [Compound No. 31, 6-N-{[4-Trifluoromethylphenyl]aminocarbonylamino}-N-propyl-D-gluco-δ-lactam], the GI50 is 131 µM in assay [1]; 139 µM in assay [2]; 82.2 µM in assay [3]; 79.5 µM in assay [4]; 132 µM in the assay on LOX (melanoma); 113 µM in assay [5].
As for `CCCN1C(=O)[C@H](OC(C)=O)[C@@H](OC(C)=O)[C@H](OC(C)=O)[C@H]1CNC(=O)Nc1ccc(OC)cc1` [Compound No. 32, 2,3,4-Tri-O-acetyl-6-N-{[4-methoxyphenyl]aminocarbonylamino}-N-propyl-D-gluco-δ-lactam], the GI50 was found to be 94.4 µM in assay [1]; 74.8 µM in assay [2]; 62 µM in assay [3]; 37.7 µM in assay [4]; 87.4 µM in the assay with LOX (melanoma); 55.3 µM in assay [5].
On to `CCCN1C(=O)[C@H](OC(C)=O)[C@@H](OC(C)=O)[C@H](OC(C)=O)[C@H]1CNC(=O)Nc1ccccc1` [Compound No. 33, 2,3,4-Tri-O-acetyl-6-N-{[phenyl]aminocarbonylamino}-N-propyl-D-gluco-δ-lactam], for which the GI50 is 56.8 µM in assay [1]; 34.1 µM in assay [2]; 47.1 µM in assay [3]; 24.1 µM in assay [4]; 25.1 µM in the assay on LOX (melanoma); 52.7 µM in assay [5].
In the case of `CCCN1C(=O)C(OC(C)=O)C(OC(C)=O)C(OC(C)=O)C1CNC(=O)Nc1ccc(F)cc1` [Compound No. 34, 2,3,4-Tri-O-acetyl-6-N-{[4-fluorophenyl]aminocarbonylamino}-N-propyl-D-gluco-δ-lactam], the GI50 in assay [1] stood at 63.4 µM; in assay [2], 26.1 µM; in assay [3], 28.3 µM; in assay [4], 38.4 µM; in the assay on LOX (melanoma), 130 µM; in assay [5] it was 78.2 µM.
Take `CCCN1C(=O)[C@H](O[Si](C)(C)C)[C@@H](O[Si](C)(C)C)[C@H](O[Si](C)(C)C)[C@H]1CNC(=O)Nc1ccccc1` [Compound No. 35, 2,3,4-Tri-O-trimethylsilyl-6-N-{[phenyl]aminocarbonylamino}-N-propyl-D-gluco-δ-lactam]: the GI50 was determined as 9.3 µM in assay [1]; 7.6 µM in assay [2]; 5.8 µM in assay [3]; 19.4 µM in assay [4]; 8 µM in the assay on LOX (melanoma); 14 µM in assay [5].
`CCCN1C[C@H](OCc2ccccc2)[C@@H](OCc2ccccc2)[C@H](OCc2ccccc2)[C@H]1CNC(=O)Nc1ccc(Cl)cc1` [Compound No. 36]: the GI50 amounted to 19.1 µM in assay [1]; 0.3 µM in assay [2]; 11.7 µM in assay [3]; 0.8 µM in assay [4]; 0.9 µM in the assay with LOX (melanoma); 16.7 µM in assay [5].
With `CCCN1C[C@H](OCc2ccccc2)[C@@H](OCc2ccccc2)[C@H](OCc2ccccc2)[C@H]1CNC(=O)Nc1ccc(F)cc1F` [Compound No. 37], the GI50 in assay [1] was 17.3 µM; in assay [2], 10.3 µM; in assay [3] it was 15.4 µM; in assay [4], 2.8 µM; with LOX (melanoma), 5.1 µM; in assay [5], 11.1 µM.
On to `CCCN1C[C@H](OCc2ccccc2)[C@@H](OCc2ccccc2)[C@H](OCc2ccccc2)[C@H]1CNC(=S)Nc1ccc(Cl)cc1` [Compound No. 39, 2,3,4-Tri-O-benzyl-6-N-{[4-chlorophenyl]aminothiocarbonylamino}-1,5-dideoxy-1,5-imino-N-propyl glucitol], for which the GI50 in assay [1] came to 52.7 µM; in assay [2], 16.1 µM; in assay [3] it was 31.9 µM; in assay [4], 20.6 µM; in the assay with LOX (melanoma), 103 µM; in assay [5] it was 72.7 µM.
Consider `CCCN1C[C@H](OCc2ccccc2)[C@@H](OCc2ccccc2)[C@H](OCc2ccccc2)[C@H]1CNC(=O)Nc1ccc(F)cc1` [Compound No. 40, 2,3,4-Tri-O-benzyl-6-N-{[4-fluorophenyl]aminocarbonylamino}-1,5-dideoxy-1,5-imino-N-propyl glucitol], for which the GI50 worked out at 18.4 µM in assay [1]; 9.7 µM in assay [2]; 20.1 µM in assay [3]; 2 µM in assay [4]; 27.2 µM in the assay with LOX (melanoma); 35.7 µM in assay [5].
`C=CCN1C(=O)C(OCc2ccccc2)C(OCc2ccccc2)C(OCc2ccccc2)C1COC(=O)Nc1ccc(Cl)cc1` [Compound No. 41, N-Allyl-6-O-(4-chlorophenylcarbamate)-2,3,4-tri-O-benzyl-D-gluco-δ-lactam]: the GI50 in assay [1] was more than 664 µM; in assay [2], 109 µM; in assay [3] it was more than 664 µM; in assay [4] it was 71.2 µM; in the assay with LOX (melanoma), more than 664 µM; in assay [5] it was 142 µM.
For the compound `C=CCN1C(=O)[C@H](OCc2ccccc2)[C@@H](OCc2ccccc2)[C@H](OCc2ccccc2)[C@H]1COC(=S)Nc1ccc2ccccc2c1` [Compound No. 42, N-Allyl-2,3,4-Tri-O-benzyl-6-(2-naphthylithiocarbamate)-D-gluco-δ-lactam], the GI50 in assay [1] is more than 373 µM; in assay [2], 232 µM; in assay [3], more than 373 µM; in assay [4] it was 103 µM; in the assay on LOX (melanoma) it was more than 373 µM; in assay [5], 175 µM.
With `CCCN1C(=O)[C@H](O)[C@@H](O)[C@H](O)[C@H]1COC(=O)Nc1ccccc1` [Compound No. 43, N-Propyl-6-(phenylcarbamate)-N-propyl-D-gluco-δ-lactam], the GI50 is 280 µM in assay [1]; 115 µM in assay [2]; 235 µM in assay [3]; 208 µM in assay [4]; 161 µM with LOX (melanoma); 226 µM in assay [5].
Take `C=CCN1C[C@H](OCc2ccccc2)[C@@H](OCc2ccccc2)[C@H](OCc2ccccc2)[C@H]1COC(=O)Nc1ccc(Cl)cc1` [Compound No. 44, N-Allyl-2,3,4-tri-O-benzyl-6-{p-chlorophenylcarbamate}-1,5-dideoxy-1,5-imino glucitol]: the GI50 is 7.5 µM in assay [1]; 2.3 µM in assay [2]; 29.8 µM in assay [3]; 29.2 µM in assay [4]; 8.7 µM in the assay with LOX (melanoma); 88.5 µM in assay [5].
For the compound `C=CCN1C(=O)[C@H](OCc2ccccc2)[C@@H](OCc2ccccc2)[C@H](OCc2ccccc2)[C@H]1COC(=O)c1cccs1` [Compound No. 45], the GI50 in assay [1] is more than 419 µM; in assay [2] it was 397 µM; in assay [3], more than 419 µM; in assay [4] it was 92.9 µM; with LOX (melanoma), more than 419 µM; in assay [5] it was 148 µM.
For `CCCN1C(=O)[C@H](OCc2ccccc2)[C@@H](OCc2ccccc2)[C@H](OCc2ccccc2)[C@H]1CNC(=O)c1cccs1` [Compound No. 46, 2,3,4-Tri-O-benzyl-N-propyl-6-{[2-thiophene]carboxamido}-D-gluco-δ-lactam], the GI50 was 83.4 µM in assay [1]; 18.4 µM in assay [2]; 105 µM in assay [3]; 3.3 µM in assay [4]; 178 µM in the assay with LOX (melanoma); 83.8 µM in assay [5].
Regarding `CCCN1C(=O)[C@H](OCc2ccccc2)[C@@H](OCc2ccccc2)[C@H](OCc2ccccc2)[C@H]1CNC(=O)c1ccc(F)cc1F` [Compound No. 47, 2,3,4-Tri-O-benzyl-6-N-{[2,4-difluorophenyl]carboxamido}-N-propyl-D-gluco-δ-lactam], the GI50 in assay [1] was 68.2 µM; in assay [2], 14.7 µM; in assay [3], 155 µM; in assay [4], 49.3 µM; in the assay with LOX (melanoma), 51.4 µM; in assay [5] it was 153 µM.

Source of the values: patent US20060241114A1, “Derivatives of azasugars as anticancer agents” (priority 2003, published 2006).
